PubChem BioAssay (NCI)
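Test compounds were applied to cells in 96-well plates for 48 hours at 5 doses. TGI denotes the concentration required for complete inhibition of growth.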

What was measured:
Assay in all cases: NCI tumour cell line growth inhibition, 48 h
786-0 renal = test system: 786-0 renal
ACHN renal = test system: ACHN renal
BT-549 breast = test system: BT-549 breast
HL-60(TB) leukemia = test system: HL-60(TB) leukemia
HT29 colon = test system: HT29 colon
KM12 colon = test system: KM12 colon
LOX IMVI melanoma = test system: LOX IMVI melanoma
M14 melanoma = test system: M14 melanoma
MCF7 breast = test system: MCF7 breast
MDA-N = test system: MDA-N
NCI-H23 lung = test system: NCI-H23 lung
NCI/ADR-RES ovarian = test system: NCI/ADR-RES ovarian
OVCAR-8 ovarian = test system: OVCAR-8 ovarian
RPMI-8226 leukemia = test system: RPMI-8226 leukemia
SK-MEL-2 melanoma = test system: SK-MEL-2 melanoma
SK-MEL-5 melanoma = test system: SK-MEL-5 melanoma
SK-OV-3 ovarian = test system: SK-OV-3 ovarian
SN12C renal = test system: SN12C renal
TK-10 renal = test system: TK-10 renal

| SMILES | TGI (786-0 renal) | TGI (ACHN renal) | TGI (BT-549 breast) | TGI (HL-60(TB) leukemia) | TGI (HT29 colon) | TGI (KM12 colon) | TGI (LOX IMVI melanoma) | TGI (M14 melanoma) | TGI (MCF7 breast) | TGI (MDA-N) | TGI (NCI-H23 lung) | TGI (NCI/ADR-RES ovarian) | TGI (OVCAR-8 ovarian) | TGI (RPMI-8226 leukemia) | TGI (SK-MEL-2 melanoma) | TGI (SK-MEL-5 melanoma) | TGI (SK-OV-3 ovarian) | TGI (SN12C renal) | TGI (TK-10 renal) |
| --- | --- | --- | --- | --- | --- | --- | --- | --- | --- | --- | --- | --- | --- | --- | --- | --- | --- | --- | --- |
| O=C(N/N=C/c1c(-c2ccccc2)no[n+]1[O-])N1CCOCC1 | > 100 µM | > 100 µM | > 100 µM | > 100 µM | > 100 µM | > 100 µM | > 100 µM | > 100 µM | > 100 µM | > 100 µM | > 100 µM | > 100 µM | > 100 µM | > 100 µM | > 100 µM | > 100 µM | > 100 µM | > 100 µM | > 100 µM |
| CC1=CC[C@H](C(C)C)C(C(O)[C@@H](C)O[Si](c2ccccc2)(c2ccccc2)C(C)(C)C)C1=O (stereo partly specified) | 32.7 µM | 31.1 µM | 37.5 µM | 42.6 µM | 31.7 µM | 48.3 µM | 45.7 µM | 32.6 µM | 44.2 µM | 53 µM | 40.2 µM | 38.1 µM | 54.1 µM | 48 µM | 32 µM | 33.7 µM | 79.7 µM | 37.9 µM | 31.7 µM |
| CC(C)(C)OCC1NC(=O)[C@@H]2Cc3c([nH]c4ccccc34)C(c3ccccc3)N2C1=O (stereo partly specified) | > 50 µM | > 50 µM | > 50 µM | > 50 µM | > 50 µM | > 50 µM | > 50 µM | > 50 µM | > 50 µM | > 50 µM | > 50 µM | > 50 µM | > 50 µM | > 33.7 µM | > 50 µM | > 50 µM | > 50 µM | > 50 µM | > 50 µM |
| CCCC[C@H]1[C@@H](OCOc2ccccc2)COC(=O)N1[C@H](C)c1ccccc1 | – | 47.8 µM | 44.4 µM | 59.4 µM | > 59 µM | 33.5 µM | 70.7 µM | 31.2 µM | 26.7 µM | 32.4 µM | > 58.2 µM | > 66.1 µM | > 100 µM | 60.1 µM | 33.3 µM | 16.9 µM | > 56.1 µM | 21.9 µM | 39 µM |
| COC(=O)[C@]12CC[C@H]3CC[C@H]([C@H]31)[C@H](c1ccccc1)N2 | 29.4 µM | 31.4 µM | 34.3 µM | 47.6 µM | 29.5 µM | 39.8 µM | 32.1 µM | 32.7 µM | 31.2 µM | 34.9 µM | 37.2 µM | 33.4 µM | 37 µM | 47.9 µM | 28.8 µM | 27.9 µM | 77.7 µM | 29.5 µM | 32 µM |
| CCO/C=N\c1c(C#N)c(-c2ccc(Cl)cc2)cn1-c1ccc(C)cc1 | > 100 µM | > 100 µM | > 100 µM | > 100 µM | > 100 µM | – | > 100 µM | > 100 µM | > 100 µM | > 100 µM | > 100 µM | > 100 µM | > 100 µM | – | > 100 µM | > 100 µM | > 100 µM | > 100 µM | > 100 µM |
